Legend:
johnsongrass = assay: Test C postemergence; assay type: in vivo, Sorghum halepense; details: for Johnsongrass plant response rating: 16 g ai/ha, visual rating
How it was run: (§1)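 Greenhouse herbicide screen. Pre: seeded loam/sand, sprayed at planting. Post: 1–4 leaf plants (2–18 cm) in peat-based mix. Formulation: solvent mixture + surfactant, non-phytotoxic. Readout: visual % control vs untreated, 13–15 d; dash = not tested.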

yellow nutsedge = assay: Test C postemergence; assay type: in vivo, Cyperus esculentus
How it was run: as §1

giant foxtail = assay: Test C postemergence; assay type: in vivo, Setaria faberii
How it was run: as §1

corn [1] = assay: Test A postemergence; assay type: in vivo, Zea mays
How it was run: (§2)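 Visual 0–100 rating (100 = complete control) taken about 10 d post-treatment relative to untreated checks. Preemergence: directed soil spray on sown loam/sand pots. Postemergence: seedlings 2–10 cm, 1–2 leaf. Non-phytotoxic solvent formulation with surfactant.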

wheat, winter = assay: Test C postemergence; assay type: in vivo, Triticum aestivum
How it was run: as §1

velvetleaf = assay: Test A postemergence; assay type: in vivo, Abutilon theophrasti; details: 0 to 100 scale where 0 is no effect and 100 is complete control
How it was run: as §2

barnyardgrass = assay: Test A postemergence; assay type: in vivo, Echinochloa crus-galli
How it was run: as §2

corn [2] = assay: Test C postemergence; assay type: in vivo, Zea mays
Text: Seeds of plant species selected from blackgrass (Alopecurus myosuroides), Italian ryegrass (Lolium multiflorum), wheat, winter (winter wheat, Triticum aestivum), galium (catchweed bedstraw, Galium aparine), corn (Zea mays), large (Lg) crabgrass (Digitaria sanguinalis), giant foxtail (Setaria faberii), johnsongrass (Sorghum halepense), lambsquarters (Chenopodium album), morningglory (Ipomoea coccinea), yellow nutsedge (Cyperus esculentus), pigweed (Amaranthus retroflexus), ragweed (common ragweed, Ambrosia elatior), soybean (Glycine max), barnyardgrass (Echinochloa crus-galli), oilseed rape (Brassica napus), waterhemp (common waterhemp, Amaranthus rudis), kochia (Kochia scoparia), wild oat (Avena fatua), surinam grass (Brachiaria decumbens), foxtail, green (green foxtail, Setaria viridis), goosegrass (Eleusine indica), bromegrass, downy (downy bromegrass, Bromus tectorum), nightshade (eastern black nightshade, Solanum ptycanthum), cocklebur (common cocklebur, Xanthium strumarium), cupgrass, woolly (woolly cupgrass, Eriochloa villosa), bermudagrass (Cynodon dactylon), sunflower, (common oilseed sunflower, Helianthus annuus), Russian thistle (Salsola kali), and velvetleaf (Abutilon theophrasti) were planted into a blend of loam soil and sand and treated preemergence with test chemicals formulated in a non-phytotoxic solvent mixture which included a surfactant.
At the same time, plants selected from these crop and weed species and also barley, winter (winter barley, Hordeum vulgare), windgrass (Apera spica-venti), chickweed (common chickweed, Stellaria media), deadnettle (henbit deadnettle, Lamium amplexicaule), and canarygrass (littleseed canarygrass, Phalaris minor) were planted in pots containing Redi-Earth® planting medium (Scotts Company, 14111 Scottslawn Road, Marysville, Ohio 43041) comprising spaghnum peat moss, vermiculite, wetting agent and starter nutrients and treated with postemergence applications of test chemicals formulated in the same manner. Plants ranged in height from 2 to 18 cm (1- to 4-leaf stage) for postemergence treatments. Treated plants and controls were maintained in a greenhouse for 13 to 15 days, after which time all species were compared to controls and visually evaluated. Plant response ratings, summarized in Table C, are based on a scale of 0 to 100 where 0 is no effect and 100 is complete control. A dash (-) response means no test result.

large (Lg) crabgrass [3] = assay: Test A preemergence; assay type: in vivo, Digitaria sanguinalis
How it was run: as §2

large (Lg) crabgrass [4] = assay: Test C postemergence; assay type: in vivo, Digitaria sanguinalis
How it was run: as §1

[5] = postemergence, scale 0 to 100 (0 no effect, 100 complete control), 13 to 15 days
[6] = Postemergence, 31 g ai/ha, scale 0 to 100 (0 no effect, 100 complete control), 13 to 15 days
[7] = Postemergence, 62 g ai/ha, scale 0 to 100 (0 no effect, 100 complete control)
[8] = 16 g ai/ha, postemergence, visual rating, scale 0 to 100 (0 no effect, 100 complete control), 13 to 15 days
[9] = 125 g ai/ha, 0 to 100 scale where 0 is no effect and 100 is complete control
[10] = 500 g ai/ha, 0 to 100 scale where 0 is no effect and 100 is complete control

FC(F)c1cnn(-c2ccccc2Oc2ncc(Cl)cn2)c1 [Compound 80, 5-chloro-2-[2-[4-(difluoromethyl)-1H-pyrazol-1-yl]phenoxy]pyrimidine]
Johnsongrass plant response rating (johnsongrass; [5]): 0
pest or weed control at 125 g/ha (johnsongrass; Sorghum halepense, post-emergence, 125 g ai/ha, postemergence, read-out: Plant response rating (0 to 100), Johnsongrass): 5%
pest or weed control at 31 g/ha (johnsongrass; Sorghum halepense, post-emergence, Postemergence, 31 g ai/ha, scale 0 to 100 (0 no effect, 100 complete control), 13 to 15 days, read-out: Plant response rating, Johnsongrass): 0%
pest or weed control at 62 g/ha (johnsongrass; Sorghum halepense, post-emergence, Postemergence, 62 g ai/ha, scale 0 to 100 (0 no effect, 100 complete control), read-out: Plant response rating, Johnsongrass): 5%
pest or weed control at 125 g/ha (yellow nutsedge; Cyperus, post-emergence, 125 g ai/ha, postemergence, read-out: Plant response rating (0 to 100), Nutsedge, Yellow): 5%
pest or weed control at 31 g/ha (yellow nutsedge; Cyperus, post-emergence, Postemergence, 31 g ai/ha, scale 0 to 100 (0 no effect, 100 complete control), 13 to 15 days, read-out: Plant response rating, Nutsedge, Yellow): 5%
pest or weed control at 62 g/ha (yellow nutsedge; Cyperus, post-emergence, Postemergence, 62 g ai/ha, scale 0 to 100 (0 no effect, 100 complete control), read-out: Plant response rating, Nutsedge, Yellow): 5%
pest or weed control at 16 g/ha (giant foxtail; Setaria faberi, post-emergence, 16 g ai/ha, postemergence, visual rating, scale 0 to 100 (0 no effect, 100 complete control), 13 to 15 days, read-out: Foxtail, Giant plant response rating): 0%
pest or weed control at 125 g/ha (giant foxtail; Setaria faberi, post-emergence, 125 g ai/ha, postemergence, read-out: Plant response rating (0 to 100), Foxtail, Giant): 5%
pest or weed control at 31 g/ha (giant foxtail; Setaria faberi, post-emergence, Postemergence, 31 g ai/ha, scale 0 to 100 (0 no effect, 100 complete control), 13 to 15 days, read-out: Plant response rating, Foxtail, Giant): 5%
pest or weed control at 62 g/ha (giant foxtail; Setaria faberi, post-emergence, Postemergence, 62 g ai/ha, scale 0 to 100 (0 no effect, 100 complete control), read-out: Plant response rating, Foxtail, Giant): 5%
Corn plant response rating (crop injury, 0 = no effect, 100 = complete kill) at 125 g/ha (corn [1]; Zea mays, post-emergence, 240 h, 125 g ai/ha, 0 to 100 scale where 0 is no effect and 100 is complete control): 70%
plant injury at 500 g/ha (corn [1]; Zea mays, post-emergence, 240 h, 500 g ai/ha, 0 to 100 scale, 0 no effect, 100 complete control, read-out: Plant response rating Corn): 10%
plant injury at 125 g/ha (wheat, winter; Triticum aestivum, post-emergence, 125 g ai/ha, postemergence, read-out: Plant response rating (0 to 100), Wheat): 30%
plant injury at 31 g/ha (wheat, winter; Triticum aestivum, post-emergence, Postemergence, 31 g ai/ha, scale 0 to 100 (0 no effect, 100 complete control), 13 to 15 days, read-out: Plant response rating, Wheat): 0%
plant injury at 62 g/ha (wheat, winter; Triticum aestivum, post-emergence, Postemergence, 62 g ai/ha, scale 0 to 100 (0 no effect, 100 complete control), read-out: Plant response rating, Wheat): 5%
pest or weed control at 125 g/ha (velvetleaf; Abutilon theophrasti, post-emergence, 240 h, 125 g ai/ha, read-out: Plant response rating, Velvetleaf): 100%
pest or weed control at 500 g/ha (velvetleaf; Abutilon theophrasti, post-emergence, 240 h, 500 g ai/ha, read-out: Plant response rating, Velvetleaf): 100%
pest or weed control at 125 g/ha (barnyardgrass; Echinochloa crus-galli, post-emergence, 240 h, 125 g ai/ha, 0 to 100 scale where 0 is no effect and 100 is complete control, read-out: Plant response rating, Barnyardgrass): 70%
pest or weed control at 500 g/ha (barnyardgrass; Echinochloa crus-galli, post-emergence, 240 h, 500 g ai/ha, 0 to 100 scale, 0 no effect, 100 complete control, read-out: Plant response rating Barnyardgrass): 100%
plant injury at 16 g/ha (corn [2]; Zea mays, post-emergence, 16 g ai/ha, postemergence, visual rating, scale 0 to 100 (0 no effect, 100 complete control), 13 to 15 days, read-out: Corn plant response rating): 0%
plant injury at 125 g/ha (corn [2]; Zea mays, post-emergence, 125 g ai/ha, postemergence, read-out: Plant response rating (0 to 100), Corn): 5%
Corn plant response rating (crop injury, 0 = no effect, 100 = complete kill) at 31 g/ha (corn [2]; Zea mays, post-emergence, Postemergence, 31 g ai/ha, scale 0 to 100 (0 no effect, 100 complete control), 13 to 15 days): 0%
Corn plant response rating (crop injury, 0 = no effect, 100 = complete kill) at 62 g/ha (corn [2]; Zea mays, post-emergence, Postemergence, 62 g ai/ha, scale 0 to 100 (0 no effect, 100 complete control)): 5%
pest or weed control at 125 g/ha (large (Lg) crabgrass [3]; Digitaria sanguinalis, pre-emergence, 240 h, 125 g ai/ha, 0 to 100 scale where 0 is no effect and 100 is complete control, read-out: Plant response rating, Crabgrass, Large): 100%
pest or weed control at 500 g/ha (large (Lg) crabgrass [3]; Digitaria sanguinalis, pre-emergence, 240 h, 500 g ai/ha, 0 to 100 scale, 0 no effect, 100 complete control, approx. 10 days, read-out: Crabgrass, Large plant response rating): 100%
pest or weed control at 16 g/ha (large (Lg) crabgrass [4]; Digitaria sanguinalis, post-emergence, 16 g ai/ha, postemergence, visual rating, scale 0 to 100 (0 no effect, 100 complete control), 13 to 15 days, read-out: Crabgrass, Large plant response rating): 0%
pest or weed control at 125 g/ha (large (Lg) crabgrass [4]; Digitaria sanguinalis, post-emergence, 125 g ai/ha, postemergence, read-out: Plant response rating (0 to 100), Crabgrass, Large): 5%
pest or weed control at 31 g/ha (large (Lg) crabgrass [4]; Digitaria sanguinalis, post-emergence, Postemergence, 31 g ai/ha, scale 0 to 100 (0 no effect, 100 complete control), 13 to 15 days, read-out: Plant response rating, Crabgrass, Large): 5%
pest or weed control at 62 g/ha (large (Lg) crabgrass [4]; Digitaria sanguinalis, post-emergence, Postemergence, 62 g ai/ha, scale 0 to 100 (0 no effect, 100 complete control), read-out: Plant response rating, Crabgrass, Large): 5%

FC(F)Oc1cnn(-c2ccccc2Oc2ncc(Cl)cn2)c1 [Compound 98]
Johnsongrass plant response rating (johnsongrass; [5]): 0
Plant response rating (0 to 100), Johnsongrass (johnsongrass; 125 g ai/ha, postemergence): 10
Plant response rating, Johnsongrass (johnsongrass; [6]): 0
Plant response rating, Johnsongrass (johnsongrass; [7]): 5
Plant response rating (0 to 100), Nutsedge, Yellow (yellow nutsedge; 125 g ai/ha, postemergence): 5
Plant response rating, Nutsedge, Yellow (yellow nutsedge; [6]): 10
Plant response rating, Nutsedge, Yellow (yellow nutsedge; [7]): 5
Foxtail, Giant plant response rating (giant foxtail; [8]): 5
Plant response rating (0 to 100), Foxtail, Giant (giant foxtail; 125 g ai/ha, postemergence): 10
Plant response rating, Foxtail, Giant (giant foxtail; [6]): 5
Plant response rating, Foxtail, Giant (giant foxtail; [7]): 5
Plant response rating, Corn (corn [1]; [9]): 40
Plant response rating, Corn (corn [1]; [10]): 70
Plant response rating (0 to 100), Wheat (wheat, winter; 125 g ai/ha, postemergence): 10
Plant response rating, Wheat (wheat, winter; [6]): 0
Plant response rating, Wheat (wheat, winter; [7]): 5
Plant response rating, Velvetleaf (velvetleaf; 500 g ai/ha): 100
Plant response rating, Barnyardgrass (barnyardgrass; [9]): 80
Plant response rating, Barnyardgrass (barnyardgrass; [10]): 90
Corn plant response rating (corn [2]; [8]): 5
Plant response rating (0 to 100), Corn (corn [2]; 125 g ai/ha, postemergence): 20
Plant response rating, Corn (corn [2]; [6]): 10
Plant response rating, Corn (corn [2]; [7]): 5
Plant response rating, Crabgrass, Large (large (Lg) crabgrass [3]; [9]): 100
Crabgrass, Large plant response rating (large (Lg) crabgrass [3]; 500 g ai/ha, 0 to 100 scale, 0 no effect, 100 complete control, approx. 10 days): 100
Crabgrass, Large plant response rating (large (Lg) crabgrass [4]; [8]): 5
Plant response rating (0 to 100), Crabgrass, Large (large (Lg) crabgrass [4]; 125 g ai/ha, postemergence): 5
Plant response rating, Crabgrass, Large (large (Lg) crabgrass [4]; [6]): 5
Plant response rating, Crabgrass, Large (large (Lg) crabgrass [4]; [7]): 5
